Assays:
NSCLC = experiment: Phase Ia dose escalation trial: tumour response according to RECIST v1.1 in NSCLC patients; type: in vivo, human; settings: for Best overall response (RECIST 1.1): Partial response, % / Best overall response (RECIST 1.1): Progressive disease, % / Best overall response (RECIST 1.1): Stable disease, % / Best overall response (RECIST 1.1): Complete response, % / Best overall response (RECIST 1.1): Non-CR/Non-PD, % / Best overall response (RECIST 1.1): Not evaluable, %: regardless of confirmation, data lock 16 Mar. 2023
From the text: Tumour assessments should include computed tomography (CT) scans of the chest, abdomen/pelvis (or PET/CT) and a brain MRI at screening. If clinically indicated, imaging of any other known or suspected sites of disease (e.g. bone) using an appropriate method (CT scan, MRI, PET/CT, or bone scan) should be performed. The same radiographic procedure must be used throughout the trial. Assessments will be performed by the investigator at screening (≤28 days prior to initiation of treatment), every 2 cycles (6 weeks ±5 days), at the end-of-treatment (EOT) visit (if not performed within the previous 3 weeks), and at the discretion of the investigator, and copies may be collected by the sponsor or designee. Wherever possible the assessment schedule should not be changed, but if there is an interruption or delay to treatment, alteration of the tumour assessment schedule to align with clinical assessments is allowed. Additional unscheduled tumour assessments may be performed at the discretion of the investigator. If the patient stops trial medication for a reason other than progression, tumour assessment according to RECIST v1.1 continues until progression (or until one of the following occurs; death, lost to follow-up, end of the trial).
Tumour response is evaluated according to RECIST Version 1.1 (Eisenhauer E A, Therasse P, Bogaerts J, Schwartz L H, Sargent D, Ford R, et al. New response evaluation criteria in solid tumours: revised RECIST guideline (version 1.1). Eur J Cancer. 2009; 45:228-247). RECIST 1.1 is used for a) whole-body assessment (classical RECIST 1.1) and b) the tumour assessment of non-CNS areas. The assessment according to classical RECIST 1.1 by the investigator and/or the local radiologist is the basis for continuation or discontinuation of the trial in an individual patient (in addition to safety). No whole-body RECIST assessment is performed in the dose escalation part.

[1] = Phase Ia dose escalation trial: pharmacokinetics, plasma exposure; type: in vivo; settings: increasing doses, BID and QD
Protocol: Pharmacokinetic (PK) profiles of compound (1) are investigated after the first and after repeated doses. Standard PK parameters are calculated, if data allows and if scientifically reasonable. […] Statistical analyses are performed.
If deemed necessary, further PK parameters might be used for these assessments.
Preliminary PK analyses can be performed as necessary for DEC decisions. The final preliminary analysis are performed at the end of the dose escalation part prior to proceeding to the dose expansion part. In contrast to the final PK analysis, the preliminary analyses are based on planned sampling times rather than on actual times; no supplementary patient information, e.g. on AEs or concomitant medication, is used in these analyses, and the outputs are not validated. Minor discrepancies between preliminary and final results may therefore occur.

[2] = tested on: patients with HER2 mutation positive advanced/metastatic NSCLC; experiment: Phase Ib dose expansion, Cohort 1: safety (treatment related adverse events); type: in vivo, human; settings: 120/240 mg QD, 42 patients
From the text: (§1) This Example focuses on the dose expansion part (Phase Ib) of the Phase I study described in Example 8. Approximately 275 patients diagnosed with advanced or metastatic refractory NSCLC harbouring mutations in the HER2 gene are enrolled. Patients are divided into 5 cohorts according to the main inclusion criteria listed below.
(§2) The trial objectives of Phase Ib include: • For cohort 1, cohort 2, and cohort 5, assess objective tumour response rate by central independent review; • For cohort 3, assess objective tumour response rate by investigator assessment; • For all cohorts, further investigate the safety, tolerability, and PK of the investigated doses of zongertinib in patients with HER2 mutation positive advanced/metastatic NSCLC; • For all cohorts, continue evaluating safety, and patient-reported outcomes.
The main inclusion criteria include: • Patients with a confirmed diagnosis of an advanced, unresectable and/or metastatic non-haematologic malignancy with at least one measurable lesion; • Availability and willingness to provide a sample of archival formalin-fixed paraffin embedded (FFPE) tumour tissue material; • Patients must be willing to comply with the blood sampling and tumour biopsy requirements for PK, PD and biomarker analyses; • For cohort 1: Patients with documented HER2 Tyrosine Kinase Domain (TKD) mutation positive non-squamous NSCLC who had received, in the advanced/metastatic setting, at least one line of systemic therapy that includes a platinum-based combination chemotherapy; • For cohort 2: Patients with documented HER2 Tyrosine Kinase Domain (TKD) mutation positive non-squamous NSCLC who have not received any previous lines of therapy (neo or adjuvant chemo, chemoradio or radiotherapy is permitted if at least 6 months have elapsed prior to disease progression); • For cohort 3: Patients with documented HER2 Non-TKD mutation positive NSCLC, and HER2 TKD mutation positive squamous NSCLC, who had received in the advanced/metastatic setting at least one line of systemic therapy that includes a platinum-based combination chemotherapy; • Patients in these cohorts 1 to 4 must have not received prior therapy with HER2 directed antibody-drug conjugates (ADC); • For cohort 5: Patients with documented HER2 TKD mutation positive non-squamous NSCLC who had received prior therapy with HER2 directed ADC in the advanced/metastatic setting and developed disease progression during or after completing this therapy.
The treatment consists of reiterated cycles of 3 weeks as long as the patient has clinical benefit or until undue drug toxicity or withdrawal of consent, whichever occurs first.

[3] = tested on: HER2 Tyrosine Kinase Domain (TKD) mutation positive non-squamous NSCLC; experiment: Phase Ib dose expansion, Cohort 1: objective response and disease control (RECIST 1.1); type: in vivo, human; settings: 120/240 mg QD
From the text: as §1, §2
The primary endpoints of Phase Ib include: • For cohort 1, 2, and 5: objective response (OR) assessed by independent central review, according to Response Evaluation Criteria In Solid Tumors (RECIST) version 1.1; • For cohort 3: objective response (OR) by investigator.
For Cohort 1, 2, and 5: • Duration of objective response (DoR) according to RECIST 1.1 by central independent review; • Disease control (DC) according to RECIST 1.1 by central independent review; • Progression-free survival (PFS) according to RECIST 1.1 by central independent review; […]

[4] = 5 NSCLC patients pre-treated with trastuzumab deruxtecan, data cut-off 17 Jul. 2023
[5] = 23 evaluable patients (received 2-5 cycles at cut-off)

Structure (SMILES): C=CC(=O)NC1CCN(c2ncc3ncnc(Nc4ccc(Oc5ccc6c(c5)ncn6C)c(C)c4)c3n2)CC1 [compound (1), N-{1-[8-({3-methyl-4-[(1-methyl-1H-1,3-benzodiazol-5-yl)oxy]phenyl}amino)-[1,3]diazino[5,4-d]pyrimidin-2-yl]piperidin-4-yl}prop-2-enamide]
- Best overall response (RECIST 1.1): Partial response, % (NSCLC; 180 mg QD, 5 NSCLC patients): 20.0%
- Best overall response (RECIST 1.1): Progressive disease, % (NSCLC; 180 mg QD, 5 NSCLC patients): 0.0%
- Best overall response (RECIST 1.1): Stable disease, % (NSCLC; 180 mg QD, 5 NSCLC patients): 60.0%
- Best overall response (RECIST 1.1): Complete response, % (NSCLC; 240 mg QD, 5 NSCLC patients): 0.0%
- Best overall response (RECIST 1.1): Non-CR/Non-PD, % (NSCLC; 240 mg QD, 5 NSCLC patients): 0.0%
- Best overall response (RECIST 1.1): Not evaluable, % (NSCLC; 240 mg QD, 5 NSCLC patients): 60.0%
- Best overall response (RECIST 1.1): Partial response, % (NSCLC; 240 mg QD, 5 NSCLC patients): 40.0%
- Best overall response (RECIST 1.1): Progressive disease, % (NSCLC; 240 mg QD, 5 NSCLC patients): 0.0%
- Best overall response (RECIST 1.1): Stable disease, % (NSCLC; 240 mg QD, 5 NSCLC patients): 0.0%
- Best overall response (RECIST 1.1): Complete response, % (NSCLC; 300 mg QD, 5 NSCLC patients): 0.0%
- Best overall response (RECIST 1.1): Non-CR/Non-PD, % (NSCLC; 300 mg QD, 5 NSCLC patients): 0.0%
- Best overall response (RECIST 1.1): Not evaluable, % (NSCLC; 300 mg QD, 5 NSCLC patients): 80.0%
- Best overall response (RECIST 1.1): Partial response, % (NSCLC; 300 mg QD, 5 NSCLC patients): 0.0%
- Best overall response (RECIST 1.1): Progressive disease, % (NSCLC; 300 mg QD, 5 NSCLC patients): 0.0%
- Best overall response (RECIST 1.1): Stable disease, % (NSCLC; 300 mg QD, 5 NSCLC patients): 20.0%
- tumour shrinkage, mean (NSCLC; [4]): −22.5%
- tumour shrinkage, median (NSCLC; [4]): −16.1%
- tumour shrinkage, up to (NSCLC; [4]): −53%
- Best overall response (RECIST 1.1): Complete response, % (NSCLC; BID Total, 11 NSCLC patients): 0.0%
- Best overall response (RECIST 1.1): Non-CR/Non-PD, % (NSCLC; BID Total, 11 NSCLC patients): 0.0%
- Best overall response (RECIST 1.1): Not evaluable, % (NSCLC; BID Total, 11 NSCLC patients): 0.0%
- Best overall response (RECIST 1.1): Progressive disease, % (NSCLC; BID Total, 11 NSCLC patients): 0.0%
- Best overall response (RECIST 1.1): Stable disease, % (NSCLC; BID Total, 11 NSCLC patients): 54.5%
- Best overall response (RECIST 1.1): Complete response, % (NSCLC; QD Total, 21 NSCLC patients): 0.0%
- Best overall response (RECIST 1.1): Non-CR/Non-PD, % (NSCLC; QD Total, 21 NSCLC patients): 0.0%
- Best overall response (RECIST 1.1): Not evaluable, % (NSCLC; QD Total, 21 NSCLC patients): 38.1%
- Best overall response (RECIST 1.1): Partial response, % (NSCLC; QD Total, 21 NSCLC patients): 28.6%
- Best overall response (RECIST 1.1): Progressive disease, % (NSCLC; QD Total, 21 NSCLC patients): 4.8%
- Best overall response (RECIST 1.1): Stable disease, % (NSCLC; QD Total, 21 NSCLC patients): 28.6%
- median duration of response (Kaplan Meier estimates) (NSCLC; all treated patients with NSCLC): 6.9 months
- dose proportionality of plasma exposure [1]: no apparent deviation from dose proportional pharmacokinetics
- AEs leading to treatment discontinuation [2]: No AEs led to treatment discontinuation
- TRAE diarrhea, all grades [2]: 29%
- TRAE diarrhea, grade ≥3 [2]: 0%
- TRAE dysgeusia, all grades [2]: 10%
- TRAE dysgeusia, grade ≥3 [2]: 0%
- TRAE increased aspartate aminotransferase, all grades [2]: 10%
- TRAE increased aspartate aminotransferase, grade ≥3 [2]: 2%
- TRAE low appetite, all grades [2]: 10%
- TRAE low appetite, grade ≥3 [2]: 0%
- TRAE rash, all grades [2]: 21%
- TRAE rash, grade ≥3 [2]: 0%
- Treatment related adverse events (TRAEs), all grades ([2]; Jul. 31, 2023): 67%
- Treatment related adverse events (TRAEs), grade ≥3 ([2]; Jul. 31, 2023): 10%
- DCR [3, 5]: 91%
- ORR [3, 5]: 74%
- responding patients on treatment at data cut-off [3]: All responding patients remained on treatment

— patent publication US20260207606A1, “DOSING SCHEDULE OF A SOLID DISPERSION OF A HER2 INHIBITOR” (Boehringer Ingelheim International GmbH, priority 2022, published 2026)
